Key:
Pichia kudriavzevii [1] = assay: Antifungal activity against Candida krusei ATCC 6258 after 48 hrs by microdilution method; format: functional; settings: ATCC 6258, 48 h
Nakaseomyces glabratus [2] = assay: Antifungal activity against Candida glabrata 20/I after 24 hrs by microdilution method; format: functional
Clavispora lusitaniae [3] = assay: Antifungal activity against Candida lusitaniae 2446/I after 48 hrs by microdilution method; format: functional
[4] = test system: Trichophyton mentagrophytes; assay: Antifungal activity against Trichophyton mentagrophytes 445 after 72 hrs by microdilution method; format: functional, organism-based; settings: Trichophyton mentagrophytes, 445, 72 h
[5] = test system: Trichophyton mentagrophytes; assay: Antifungal activity against Trichophyton mentagrophytes 445 after 120 hrs by microdilution method; format: functional, organism-based; settings: Trichophyton mentagrophytes, 445, 120 h
[6] = Cytostatic activity against human COLO201 cells at 10 umol/L after 72 hrs by XTT assay; format: ADME, cell-based; settings: colo 201, 72 h, 10 µM
[7] = Cytostatic activity against human HeLaS3 cells at 10 umol/L after 48 hrs by XTT assay; format: ADME, cell-based; settings: hela s3, 48 h, 10 µM
Candida tropicalis [8] = assay: Antifungal activity against Candida tropicalis 156 after 48 hrs by microdilution method; format: functional; settings: Candida tropicalis, 156, 48 h
Aspergillus fumigatus [9] = assay: Antifungal activity against Aspergillus fumigatus 231 after 24 hrs by microdilution method; format: functional, organism-based; settings: Aspergillus fumigatus, 231, 24 h
Lichtheimia corymbifera [10] = assay: Antifungal activity against Absidia corymbifera 272 after 24 hrs by microdilution method; format: functional, organism-based; settings: Lichtheimia corymbifera, 272, 24 h
Candida tropicalis [11] = assay: Antifungal activity against Candida tropicalis 156 after 24 hrs by microdilution method; format: functional; settings: Candida tropicalis, 156, 24 h
Candida parapsilosis [12] = assay: Antifungal activity against Candida parapsilosis ATCC 22019 after 24 hrs by microdilution method; format: functional; settings: Lodderomyces parapsilosis, ATCC 22019, 24 h
Aspergillus fumigatus [13] = assay: Antifungal activity against Aspergillus fumigatus 231 after 48 hrs by microdilution method; format: functional, organism-based; settings: Aspergillus fumigatus, 231, 48 h
Trichosporon asahii [14] = assay: Antifungal activity against Trichosporon asahii 1188 after 48 hrs by microdilution method; format: functional; settings: Trichosporon asahii, 1188, 48 h
Trichosporon asahii [15] = assay: Antifungal activity against Trichosporon asahii 1188 after 24 hrs by microdilution method; format: functional; settings: Trichosporon asahii, 1188, 24 h
CCRF-CEM = assay: Cytostatic activity against human CCRF-CEM cells after 72 hrs by XTT assay; format: ADME, cell-based
Candida albicans [16] = assay: Antifungal activity against Candida albicans ATCC 44859 after 24 hrs by microdilution method; format: functional; settings: ATCC 44859, 24 h
Pichia kudriavzevii [17] = assay: Antifungal activity against Candida krusei E28 after 48 hrs by microdilution method; format: functional; settings: E28, 48 h
Pichia kudriavzevii [18] = assay: Antifungal activity against Candida krusei ATCC 6258 after 24 hrs by microdilution method; format: functional; settings: ATCC 6258, 24 h
Candida parapsilosis [19] = assay: Antifungal activity against Candida parapsilosis ATCC 22019 after 48 hrs by microdilution method; format: functional; settings: Lodderomyces parapsilosis, ATCC 22019, 48 h
Nakaseomyces glabratus [20] = assay: Antifungal activity against Candida glabrata 20/I after 48 hrs by microdilution method; format: functional
Candida albicans [21] = assay: Antifungal activity against Candida albicans ATCC 90028 after 48 hrs by microdilution method; format: functional; settings: ATCC 90028, 48 h
L1210 = assay: Cytostatic activity against mouse L1210 cells at 10 umol/L after 72 hrs by XTT assay; format: ADME, cell-based; settings: l1210, 72 h, 10 µM
Pichia kudriavzevii [22] = assay: Antifungal activity against Candida krusei E28 after 24 hrs by microdilution method; format: functional; settings: E28, 24 h
Lichtheimia corymbifera [23] = assay: Antifungal activity against Absidia corymbifera 272 after 48 hrs by microdilution method; format: functional, organism-based; settings: Lichtheimia corymbifera, 272, 48 h
Clavispora lusitaniae [24] = assay: Antifungal activity against Candida lusitaniae 2446/I after 24 hrs by microdilution method; format: functional
Candida albicans [25] = assay: Antifungal activity against Candida albicans ATCC 44859 after 48 hrs by microdilution method; format: functional; settings: ATCC 44859, 48 h
Candida albicans [26] = assay: Antifungal activity against Candida albicans ATCC 90028 after 24 hrs by microdilution method; format: functional; settings: ATCC 90028, 24 h
HT-29 = assay: Cytostatic activity against human HT-29 cells at 10 umol/L after 72 hrs by XTT assay; format: ADME, cell-based; settings: ht-29, 72 h, 10 µM
HL-60 = assay: Cytostatic activity against human HL60 cells at 10 umol/L after 72 hrs by XTT assay; format: ADME, cell-based; settings: hl-60, 72 h, 10 µM

SMILES	IC80 (Pichia kudriavzevii [1]) [µM]	IC80 (Nakaseomyces glabratus [2]) [µM]	IC80 (Clavispora lusitaniae [3]) [µM]	IC80 [4] [µM]	IC50 [5] [µM]	IC80 (Candida tropicalis [8]) [µM]	IC80 (Aspergillus fumigatus [9]) [µM]	IC80 (Lichtheimia corymbifera [10]) [µM]	IC80 (Candida tropicalis [11]) [µM]	IC80 (Candida parapsilosis [12]) [µM]	IC80 (Aspergillus fumigatus [13]) [µM]	IC80 (Trichosporon asahii [14]) [µM]	IC80 (Trichosporon asahii [15]) [µM]	IC80 (Candida albicans [16]) [µM]	IC80 (Pichia kudriavzevii [17]) [µM]	IC80 (Pichia kudriavzevii [18]) [µM]	IC80 (Candida parapsilosis [19]) [µM]	IC80 (Nakaseomyces glabratus [20]) [µM]	IC80 (Candida albicans [21]) [µM]	IC80 (Pichia kudriavzevii [22]) [µM]	also measured
O=C1C=CC(=O)C1=Cc1ccc(Cl)cc1	31.2	62.5	31.2	125	> 125	31.2	62.5	> 125	31.2	31.2	62.5	62.5	31.2	7.81	62.5	31.2	31.2	62.5	31.2	31.2	Activity [6]: Non-toxic; Activity [7]: Non-toxic; IC50 (CCRF-CEM): 6.1 µM; Activity (L1210): Non-toxic; IC80 (Lichtheimia corymbifera [23]): > 125 µM; IC80 (Clavispora lusitaniae [24]): 31.2 µM; IC80 (Candida albicans [25]): 31.2 µM; IC80 (Candida albicans [26]): 31.2 µM; Activity (HT-29): Non-toxic; Activity (HL-60): Non-toxic
O=C1C=CC(=O)C1=Cc1cccs1	15.6	7.81	15.6	15.6	15.6	15.6	15.6	500	15.6	15.6	15.6	31.2	15.6	7.81	7.81	7.81	15.6	15.6	15.6	7.81	Activity [6]: Non-toxic; Activity [7]: Non-toxic; IC50 (CCRF-CEM): 4.2 µM; Activity (L1210): Non-toxic; IC80 (Lichtheimia corymbifera [23]): > 500 µM; IC80 (Clavispora lusitaniae [24]): 15.6 µM; IC80 (Candida albicans [25]): 7.81 µM; IC80 (Candida albicans [26]): 15.6 µM; Activity (HT-29): Non-toxic; Activity (HL-60): Non-toxic
OC(Cn1cncn1)(Cn1cncn1)c1ccc(F)cc1F [FLUCONAZOLE]	> 50	22	3.3	17	26	5	> 50	> 50	3	6.5	> 50	9	4	1	> 50	> 50	13	> 50	3.3	> 50	IC80 (Lichtheimia corymbifera [23]): > 50 µM; IC80 (Clavispora lusitaniae [24]): 3.3 µM; IC80 (Candida albicans [25]): 2 µM; IC80 (Candida albicans [26]): 0.8 µM
COc1ccc(C=C2C(=O)C=CC2=O)cc1	3.9	7.81	31.2	3.9	7.81	7.81	15.6	> 250	7.81	7.81	31.2	31.2	7.81	3.9	7.81	3.9	15.6	7.81	7.81	3.9	Activity [6]: Non-toxic; Activity [7]: Non-toxic; IC50 (CCRF-CEM): 3.8 µM; Activity (L1210): Non-toxic; IC80 (Lichtheimia corymbifera [23]): > 250 µM; IC80 (Clavispora lusitaniae [24]): 7.81 µM; IC80 (Candida albicans [25]): 7.81 µM; IC80 (Candida albicans [26]): 7.81 µM; Activity (HT-29): Non-toxic; Activity (HL-60): Non-toxic
O=C1C=CC(=O)C1=C/C=C/c1ccccc1	7.81	15.6	15.6	7.81	62.5	15.6	31.2	> 125	7.81	3.9	31.2	15.6	7.81	1.95	15.6	3.9	7.81	31.2	15.6	15.6	Activity [6]: Non-toxic; Activity [7]: Non-toxic; IC50 (CCRF-CEM): 4.4 µM; Activity (L1210): Non-toxic; IC80 (Lichtheimia corymbifera [23]): > 125 µM; IC80 (Clavispora lusitaniae [24]): 7.81 µM; IC80 (Candida albicans [25]): 1.95 µM; IC80 (Candida albicans [26]): 15.6 µM; Activity (HT-29): Non-toxic; Activity (HL-60): Non-toxic
Cc1ccc(C=C2C(=O)C=CC2=O)cc1	15.6	15.6	15.6	125	> 250	15.6	31.2	> 250	7.81	15.6	125	62.5	15.6	3.9	15.6	7.81	15.6	15.6	15.6	15.6	Activity [6]: Non-toxic; Activity [7]: Non-toxic; IC50 (CCRF-CEM): 2.7 µM; Activity (L1210): Non-toxic; IC80 (Lichtheimia corymbifera [23]): > 250 µM; IC80 (Clavispora lusitaniae [24]): 15.6 µM; IC80 (Candida albicans [25]): 7.81 µM; IC80 (Candida albicans [26]): 3.9 µM; Activity (HT-29): Non-toxic; Activity (HL-60): Non-toxic

Reference: ChEMBL document CHEMBL1833895, “Synthesis and biological activity of desmethoxy analogues of coruscanone A” (Bioorg Med Chem Lett, 2011)
